According to patent US20100179158A1, “INHIBITORS OF CYCLIC AMP PHOSPHODIESTERASES” (priority 2007, published 2010):

Biological target: T1, PDE4D3 (Homo sapiens, UniProt Q08499)
T1 construct: targets used in the assays are full-length proteins (as opposed to simply the catalytic domain); expressed in transfected cells; host or cells: Schizosaccharomyces pombe, gene integrated at the cgs2 locus
Experiment: IC50 on PDE4D3
Format: biochemical
Settings: read-out: IC50, PDE 4D3

T1 sequence (Q08499 1-673 isoform Q08499-2): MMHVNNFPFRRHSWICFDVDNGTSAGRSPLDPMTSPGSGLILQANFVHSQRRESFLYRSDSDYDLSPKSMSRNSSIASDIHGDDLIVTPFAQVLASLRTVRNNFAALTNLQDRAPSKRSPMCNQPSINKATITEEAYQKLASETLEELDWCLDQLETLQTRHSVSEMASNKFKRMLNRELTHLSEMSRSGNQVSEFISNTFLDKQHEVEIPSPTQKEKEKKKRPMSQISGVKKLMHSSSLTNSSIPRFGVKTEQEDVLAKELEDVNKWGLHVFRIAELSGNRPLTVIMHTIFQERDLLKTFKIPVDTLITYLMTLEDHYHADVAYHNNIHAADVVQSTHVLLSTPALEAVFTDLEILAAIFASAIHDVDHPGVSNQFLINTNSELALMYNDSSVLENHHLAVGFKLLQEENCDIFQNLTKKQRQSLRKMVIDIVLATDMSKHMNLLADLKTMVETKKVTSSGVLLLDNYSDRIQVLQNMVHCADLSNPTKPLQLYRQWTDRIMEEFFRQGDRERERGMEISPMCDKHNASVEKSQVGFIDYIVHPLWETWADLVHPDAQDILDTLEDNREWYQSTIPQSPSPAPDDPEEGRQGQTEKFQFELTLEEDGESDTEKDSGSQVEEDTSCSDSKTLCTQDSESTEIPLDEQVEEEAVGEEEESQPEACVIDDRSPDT

Compound | IC50 [nM]
CC(C)n1c2ccc(Cl)cc2c2nc3ccccc3nc21 [Compound 35] | 35

Tested on: PDE2A, PDE4A, PDE4B, Cgs2
Experiment: High throughput 5FOA growth screens of bioactive libraries
Format: cell-based, murine; Schizosaccharomyces pombe
Settings: average 20 μM; composite Z score cut-off ≧8.53
Method: High throughput drug screens were carried out at the Broad Institute's Chemical Biology Program screening facility (Broad Institute, Cambridge, Mass.). Depending upon the strain, cultures were pregrown to exponential phase in EMM complete medium containing from 0.5 to 2.5 mM cAMP to repress fbp1-ura4 transcription. […] Starting cell concentrations ranged from 0.5×10^5 to 4×10^5 cells/ml depending on the screening strain. […] Other positive control dishes contained 5 mM cAMP in the 5FOA medium. Cultures were grown for 48 hours at 30° C., sealed in an airtight container with moist paper towels to prevent evaporation. Optical densities (OD600) of cultures were measured using a microplate reader. Bioinformatic analysis of the results to determine composite Z scores was performed as previously described^30, 31.

Compound | Result in high throughput screens for 5FOA-resistant growth
COc1c2ccoc2cc2oc(C)cc(=O)c12 [visnagin] | identified
COc1c2occc2c(OC)c2c(=O)cc(C)oc12 [khellin] | identified
Cc1cc2cc3c(C)cc(=O)oc3c(C)c2o1 [trioxsalen] | identified

Tested on: PDE4A, PDE4B, PDE4D, PDE7A
Experiment: Overall PDE inhibitor profile from the yeast assays (table footnotes, summary)
Format: cell-based
Settings: not given
Excerpt: PDE inhibitors were identified using methods described herein, such as high throughput drug screens on genetically engineered fission yeast strains that express drug targets (e.g., PDE4A and/or PDE4B, which are anti-inflammatory targets). PDE inhibitors were identified based on their ability to stimulate growth and compounds were identified because they were effective in live cells. In addition, targets used in the assays are full-length proteins (as opposed to simply the catalytic domain) and the assay used included a built-in toxicity test, permeability test and stability test. The inhibitors identified display a very high degree of target specificity. Compounds identified include inhibitors that act on two of three PDE4 family enzymes and inhibitors that act on combinations of PDE4 and PDE7 strains. […] Limited inhibition of PDE4D by a PDE inhibitor is desirable, in view of the fact that inhibition of PDE4D causes emesis and cardiac arrhythmias. Subtype specificity was confirmed by means of cAMP assays.
(§1) Cells were pregrown in EMM medium [MP Biomedicals (Solon, OH), 3% glucose, filter-sterilized to avoid carmelization, which would introduce variability into the optical density of the medium] containing from 0 mM to 2.5 mM cAMP (or either 0.5 mM or 1.0 mM cGMP). This was to repress expression of the fbp1-ura4 reporter prior to exposure of cells to 5FOA medium. Cells were grown at 30° C. to exponential phase (approximately 10^7 cells/ml). Cells were collected by centrifugation and resuspended in 5FOA medium, and 25 μl were transferred to 384-well microtiter dishes (untreated, with flat clear bottoms) that had been pre-filled with 25 μl 5FOA medium and pre-pinned with 100 nl of compounds (stock solutions were generally 10 mM). Starting cell concentrations ranged from 0.5×10^5 to 4×10^5 cells/ml depending on the screening strain. […] Other positive control dishes contained 5 mM cAMP in the 5FOA medium for PDEs that lack appropriate control compounds. Cultures were grown for 48 hours at 30° C., sealed in an airtight container with moist paper towels to prevent evaporation. Optical densities (OD600) of cultures were measured using a microplate reader. Bioinformatic analysis of the results to determine composite Z scores was performed as previously described (1, 3).

Compound | PDE inhibitor profile in words (table footnote / summary)
CCCCn1c2ccccc2c2nc3ccccc3nc21 [2015, P06] | (2)-(4) Moderate PDE4A, 4B inhibitors
CCC(=O)C1=C(C)N(c2cccc(C(F)(F)F)c2)C(=O)/C1=C\c1cccs1 [Compound 27-7] | (3) Strong PDE4A5 inhibitor
CCCCn1c2ccccc2c2nc3ccccc3nc21 [2013, I20] | (2) Strong PDE4A inhibitor
C=CCn1c2ccccc2c2nc3ccccc3nc21 [1427, P20] | (3) Strong 4B, Moderate 4A inhibitor
CCOC(=O)c1sc2sc(C(=O)OCC)c(-c3ccco3)c2c1N [Compound 30-1] | (4) Weak PDE4A inhibitor
COC(=O)C1=C(C)N(Cc2ccccc2)C(=O)/C1=C\c1cccs1 [Compound 27-4] | (1) Strong PDE4A, 4B inhibitor
C=Cn1c2ccccc2c2nc3ccccc3nc21 [2033, H06] | (1) Moderate to strong PDE4A, 4B inhibitor
CC(C)(C)c1c(C#N)sc2sc(C#N)c(N)c12 [Compound 30-4] | (3) Little/no activity under conditions used
COc1ccc2c(c1)[C@]1(C)CCC[C@@](C)(CO)C1CC2 (some centres unmarked) [Compound 2067M03] | (1) Strong PDE7A inhibitor, Weak to moderate PDE4A, 4B inhibitor
Cc1ccc2c(c1)CC[C@@H]1CC(=O)CC[C@@]21C [Compound 2158J12] | (2) Strong PDE7A and PDE4s (including D) inhibitor
O=C(O)Cn1c2ccc(Cl)cc2c2nc3ccccc3nc21 [1429, L06] | (4) Moderate PDE4A, 4B inhibitor
COC(=O)C1=C(C)N(CC(C)C)C(=O)/C1=C\c1cccs1 [Compound 27-3] | (1) Strong PDE4A, 4B inhibitor
N#Cc1sc2sc(C#N)c(-c3ccc(Cl)cc3)c2c1N [Compound 30-3] | (3) Little/no activity under conditions used
C=CCn1c2ccc(Br)cc2c2nc3ccccc3nc21 [2019, G03] | (2)-(4) Moderate PDE4A, 4B inhibitors
C=CCn1c2ccc(Br)cc2c2nc3ccccc3nc21 [2017, C18] | (2)-(4) Moderate PDE4A, 4B inhibitors
CC(C)Cn1c2ccc(Br)cc2c2nc3ccccc3nc21 [2015, L04] | (5) Moderate 4B inhibitor
CCC(=O)C1=C(C)N(c2ccc(F)cc2)C(=O)/C1=C\c1cccs1 [Compound 27-6] | (4) Strong PDE4A, 4B inhibitor, Moderate PDE7A inhibitor
N#Cc1sc2sc(C#N)c(-c3cccs3)c2c1N [Compound 30-2] | (1) Weak PDE7A inhibitor
COC(=O)C1=C(C)N(c2cccc(C)c2)C(=O)/C1=C\c1cccs1 [Compound 27-5] | (2) Strong PDE4A, 4B inhibitor, Moderate PDE4D inhibitor
COC(=O)C1=C(C)N(c2ccccc2Cl)C(=O)/C1=C\c1ccco1 [Compound 27-8] | (2) Strong PDE4A, 4B inhibitor
COC(=O)C1=C(C)N(C)C(=O)/C1=C\c1cccs1 [Compound 27-2] | (2) Strong PDE4A, 4B inhibitor; Moderate PDE4D inhibitor
COC(=O)C1=C(C)N(C)C(=O)/C1=C\c1cccs1 [Compound 27-1] | (1) Strong PDEA5 inhibitor
Cc1cc(C)nc(SCC[S+]([O-])c2ccc(C(C)(C)C)cc2)n1 (centres unmarked) [Compound 26-2] | (2) Moderate 4A inhibitor
N#Cc1sc2sc(C#N)c(-c3ccco3)c2c1N [Compound 30] | (2) Strong PDE7A inhibitor
CC(C)Cn1c2ccccc2c2nc3ccccc3nc21 [1422, M02] | (1) Strong PDE4A inhibitor

Biological target: T2, PDE4A1 (Mus musculus, UniProt O89084)
T2 construct: targets used in the assays are full-length proteins (as opposed to simply the catalytic domain); expressed in transfected cells; host or cells: Schizosaccharomyces pombe, gene integrated at the cgs2 locus
T2 sequence (O89084 1-610 isoform O89084-2): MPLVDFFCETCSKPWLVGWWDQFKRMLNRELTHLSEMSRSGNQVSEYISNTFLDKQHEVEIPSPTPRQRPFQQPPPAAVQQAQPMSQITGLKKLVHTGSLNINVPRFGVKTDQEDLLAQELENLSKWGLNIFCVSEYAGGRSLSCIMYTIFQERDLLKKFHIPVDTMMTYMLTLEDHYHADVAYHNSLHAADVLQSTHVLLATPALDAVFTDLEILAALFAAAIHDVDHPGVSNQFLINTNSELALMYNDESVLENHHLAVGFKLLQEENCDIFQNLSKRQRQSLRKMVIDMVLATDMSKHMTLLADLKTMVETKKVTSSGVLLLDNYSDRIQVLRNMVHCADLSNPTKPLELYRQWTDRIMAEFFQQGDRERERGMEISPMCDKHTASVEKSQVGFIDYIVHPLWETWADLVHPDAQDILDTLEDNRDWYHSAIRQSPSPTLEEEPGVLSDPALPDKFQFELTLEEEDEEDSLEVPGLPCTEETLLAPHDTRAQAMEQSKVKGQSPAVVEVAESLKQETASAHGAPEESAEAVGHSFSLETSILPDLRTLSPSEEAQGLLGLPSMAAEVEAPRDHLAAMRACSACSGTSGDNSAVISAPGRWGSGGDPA
Experiment: IC50 on PDE4A1
Format: biochemical, murine
Settings: read-out: IC50, PDE 4A1

Compound | IC50 [nM]
CC(C)n1c2ccc(Cl)cc2c2nc3ccccc3nc21 [Compound 35] | 100

Biological target: T3, PDE7A (Homo sapiens, UniProt Q13946)
T3 construct: targets used in the assays are full-length proteins (as opposed to simply the catalytic domain); expressed in transfected cells; host or cells: Schizosaccharomyces pombe, gene integrated at the cgs2 locus
Experiment: Fission yeast 5FOA growth assay, strain expressing PDE7A
Format: cell-based
Settings: 5FOA growth
Method: as §1

T3 sequence (Q13946 whole entry, the tested form may be a part): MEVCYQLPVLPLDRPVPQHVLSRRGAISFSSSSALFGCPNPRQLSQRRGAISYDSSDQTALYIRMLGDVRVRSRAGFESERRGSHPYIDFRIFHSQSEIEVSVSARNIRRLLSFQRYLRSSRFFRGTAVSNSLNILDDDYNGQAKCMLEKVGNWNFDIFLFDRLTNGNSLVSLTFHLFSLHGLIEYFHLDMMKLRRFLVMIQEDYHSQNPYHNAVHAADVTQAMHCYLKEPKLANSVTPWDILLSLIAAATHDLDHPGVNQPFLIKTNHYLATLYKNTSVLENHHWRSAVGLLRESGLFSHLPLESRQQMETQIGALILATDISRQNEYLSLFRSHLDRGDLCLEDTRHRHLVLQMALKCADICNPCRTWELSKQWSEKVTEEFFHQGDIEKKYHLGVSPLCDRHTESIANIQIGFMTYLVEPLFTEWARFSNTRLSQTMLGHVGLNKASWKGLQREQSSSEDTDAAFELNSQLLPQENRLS

Compound | ED50, PDE 7A
CC(C)(C)c1c(C#N)sc2sc(C#N)c(N)c12 [Compound 30-4] | ND ND weak activity ND ND

Biological target: T4, PDE8A (Mus musculus, UniProt O88502)
T4 construct: targets used in the assays are full-length proteins (as opposed to simply the catalytic domain); expressed in transfected cells; host or cells: Schizosaccharomyces pombe strains DDP13 and CHP1141
T4 sequence (O88502 1-823): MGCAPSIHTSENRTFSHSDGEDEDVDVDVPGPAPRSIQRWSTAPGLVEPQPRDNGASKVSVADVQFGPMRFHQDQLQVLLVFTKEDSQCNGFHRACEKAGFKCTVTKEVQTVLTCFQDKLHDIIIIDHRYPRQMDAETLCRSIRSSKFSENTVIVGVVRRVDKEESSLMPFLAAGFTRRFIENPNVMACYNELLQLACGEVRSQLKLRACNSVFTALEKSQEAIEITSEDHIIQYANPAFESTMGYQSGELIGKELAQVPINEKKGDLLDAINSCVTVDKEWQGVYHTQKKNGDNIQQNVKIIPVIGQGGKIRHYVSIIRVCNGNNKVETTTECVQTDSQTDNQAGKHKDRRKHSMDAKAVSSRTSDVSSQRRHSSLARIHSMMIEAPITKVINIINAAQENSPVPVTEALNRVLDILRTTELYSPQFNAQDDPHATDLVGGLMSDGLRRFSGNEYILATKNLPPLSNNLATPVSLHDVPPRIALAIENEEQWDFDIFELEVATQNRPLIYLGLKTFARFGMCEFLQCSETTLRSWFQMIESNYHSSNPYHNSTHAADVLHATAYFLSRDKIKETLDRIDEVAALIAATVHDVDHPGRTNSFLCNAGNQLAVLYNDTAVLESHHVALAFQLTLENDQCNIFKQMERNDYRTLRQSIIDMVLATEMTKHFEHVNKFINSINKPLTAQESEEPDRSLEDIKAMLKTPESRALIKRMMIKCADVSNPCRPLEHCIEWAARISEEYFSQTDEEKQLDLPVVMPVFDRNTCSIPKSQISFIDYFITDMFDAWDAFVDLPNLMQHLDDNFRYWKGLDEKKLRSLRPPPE
Experiment: fbp1-lacZ β-galactosidase assay, PDE8A strain DDP13
Format: cell-based, murine
Settings: possibly a permeability problem in the yeast
Method: β-galactosidase assays and characterization of 5FOA-sensitivity were carried out as previously described^10. cAMP assays were performed on exponential phase cells grown in EMM complete medium (3% glucose), using the Assay Designs cAMP EIA kit, according to manufacturer's instructions (Assay Designs, Ann arbor, MI).
The effect of known PDE inhibitors on the expression of the fbp1-lacZ fusion in murine PDE-expressing strains was tested. […] For Table 4 β-galactosidase activity was determined from 3 to 4 independent exponential phase cultures. The average±SD represents specific activity per milligram of soluble protein.

Compound | Inhibition of PDE8A in yeast
OCCN(CCO)c1nc(N2CCCCC2)c2nc(N(CCO)CCO)nc(N3CCCCC3)c2n1 [dipyridamole] | not able to be inhibited
